Experimental data as given in PMC12709667 (Journal of Clinical Pharmacology, 2025).

Columns and labels:
BCRP = target: T1, BCRP (Homo sapiens, UniProt Q9UNQ0); assay: DDI perpetrator study: rosuvastatin probe; format: in vivo; details: human, plasma, oral, 10 mg; for AUC: rosuvastatin, probe alone (day 1), geometric mean
T1 sequence (Q9UNQ0 1-655): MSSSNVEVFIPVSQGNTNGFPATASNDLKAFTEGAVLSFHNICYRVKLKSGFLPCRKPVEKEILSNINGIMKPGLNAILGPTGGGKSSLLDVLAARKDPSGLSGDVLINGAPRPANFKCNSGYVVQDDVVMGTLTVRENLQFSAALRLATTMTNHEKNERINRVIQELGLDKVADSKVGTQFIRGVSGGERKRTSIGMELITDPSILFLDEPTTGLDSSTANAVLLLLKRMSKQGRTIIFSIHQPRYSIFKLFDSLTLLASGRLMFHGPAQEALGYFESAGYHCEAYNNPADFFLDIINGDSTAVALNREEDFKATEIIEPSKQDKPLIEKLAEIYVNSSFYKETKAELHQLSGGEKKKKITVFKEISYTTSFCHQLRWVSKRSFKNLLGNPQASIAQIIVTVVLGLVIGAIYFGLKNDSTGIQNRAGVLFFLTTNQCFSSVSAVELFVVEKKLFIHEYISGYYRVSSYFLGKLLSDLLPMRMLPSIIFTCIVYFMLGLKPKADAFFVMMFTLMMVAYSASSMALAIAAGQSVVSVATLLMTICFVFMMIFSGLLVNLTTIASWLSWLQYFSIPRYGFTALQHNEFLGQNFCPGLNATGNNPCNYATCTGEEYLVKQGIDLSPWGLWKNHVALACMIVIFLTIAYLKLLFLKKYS

CYP2C8 = target: T2, CYP2C8 (Homo sapiens, UniProt P10632); assay: DDI perpetrator study: repaglinide probe; format: in vivo; details: human, plasma, oral, 0.5 mg; for AUC: repaglinide, probe alone (day 1), geometric mean
T2 sequence (P10632 1-490): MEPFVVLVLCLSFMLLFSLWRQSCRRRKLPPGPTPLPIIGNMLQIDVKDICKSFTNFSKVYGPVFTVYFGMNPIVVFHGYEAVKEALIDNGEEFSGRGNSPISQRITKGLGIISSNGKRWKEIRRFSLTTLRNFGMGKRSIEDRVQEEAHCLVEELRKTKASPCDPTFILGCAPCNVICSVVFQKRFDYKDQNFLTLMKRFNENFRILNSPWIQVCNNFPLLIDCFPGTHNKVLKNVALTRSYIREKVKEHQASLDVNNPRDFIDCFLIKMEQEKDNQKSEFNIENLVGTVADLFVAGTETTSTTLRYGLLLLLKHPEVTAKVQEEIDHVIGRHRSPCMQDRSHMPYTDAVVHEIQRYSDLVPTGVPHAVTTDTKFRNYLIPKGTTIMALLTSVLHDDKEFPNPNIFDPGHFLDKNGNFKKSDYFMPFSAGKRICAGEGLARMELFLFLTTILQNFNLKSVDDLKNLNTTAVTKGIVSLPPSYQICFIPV

CYP3A4 = assay: clinical; details: human, plasma, oral; for AUC: geometric mean
UGT1A1 = target: T3, UGT1A1 (Homo sapiens, UniProt P22309); assay: DDI perpetrator study: dolutegravir probe; format: in vivo; details: human, plasma, oral, 50 mg; for AUC: dolutegravir, probe alone (day 1), geometric mean
T3 sequence (P22309 26-533): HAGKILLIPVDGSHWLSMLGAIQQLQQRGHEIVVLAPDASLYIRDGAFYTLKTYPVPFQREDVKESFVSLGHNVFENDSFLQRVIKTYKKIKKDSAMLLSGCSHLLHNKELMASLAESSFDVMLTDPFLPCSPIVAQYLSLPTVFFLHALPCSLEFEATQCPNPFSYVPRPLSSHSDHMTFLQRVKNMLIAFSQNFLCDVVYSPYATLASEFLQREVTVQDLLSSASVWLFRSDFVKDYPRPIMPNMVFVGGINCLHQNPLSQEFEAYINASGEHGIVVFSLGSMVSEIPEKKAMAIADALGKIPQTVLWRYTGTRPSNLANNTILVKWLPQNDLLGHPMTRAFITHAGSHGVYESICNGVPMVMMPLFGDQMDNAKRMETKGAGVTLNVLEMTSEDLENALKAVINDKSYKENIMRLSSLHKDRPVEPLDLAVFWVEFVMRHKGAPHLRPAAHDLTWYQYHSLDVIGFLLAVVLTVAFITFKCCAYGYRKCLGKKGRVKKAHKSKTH

CC(C)c1nc(N(C)S(C)(=O)=O)nc(-c2ccc(F)cc2)c1/C=C/[C@@H](O)C[C@@H](O)CC(=O)O [Rosuvastatin]
Cmax (BCRP): 2.35 ng/mL
AUC (BCRP; AUC0‐inf): 20.7 ng·h/mL
AUC (BCRP; AUC0‐last): 17.1 ng·h/mL

CCOc1cc(CC(=O)N[C@@H](CC(C)C)c2ccccc2N2CCCCC2)ccc1C(=O)O [Repaglinide]
Cmax (CYP2C8): 2.94 ng/mL
AUC (CYP2C8; AUC0‐inf): 7.27 ng·h/mL
AUC (CYP2C8; AUC0‐last): 6.68 ng·h/mL

Cc1ncc2n1-c1ccc(Cl)cc1C(c1ccccc1F)=NC2 [Midazolam]
Cmax (CYP3A4; 2.5 mg): 8.42 ng/mL
AUC (CYP3A4; 2.5 mg, AUC0‐inf, midazolam, probe alone (day 1)): 39.5 ng·h/mL
AUC (CYP3A4; 2.5 mg, AUC0‐last, midazolam, probe alone (day 1)): 37.5 ng·h/mL
AUC (CYP3A4; AUC0‐inf, midazolam + miricorilant (day 10)): 34.7 ng·h/mL

C[C@@H]1CCO[C@H]2Cn3cc(C(=O)NCc4ccc(F)cc4F)c(=O)c(O)c3C(=O)N12 [Dolutegravir]
Cmax (UGT1A1): 2590 ng/mL
AUC (UGT1A1; AUC0‐inf): 46300 ng·h/mL
AUC (UGT1A1; AUC0‐last): 44600 ng·h/mL
